22 compounds from patent US11584737B2, “Heterocyclic compound” (TAKEDA PHARMACEUTICAL COMPANY LIMITED, priority 2018, dated 2023) can be followed below.

The experiment addresses CDK12/CycK complex (Homo sapiens, UniProt Q9NYV4). Kind of experiment: Measurement of CDK12 inhibitory activity by binding assay (TR-FRET, 66 nM BODIPY-FL-labeled AT-7519). The following applies: inhibitory rate against CDK12 at 1 μM test compound, 66 nM BODIPY-FL-labeled AT-7519, 2 nM CDK12/CycK. How it is done: Experimental Example 1: CDK12 Binding Assay
(3) Measurement of CDK12 Inhibitory Activity by Binding Assay
His-tagged CDK12/CycK complex was added to a binding assay buffer supplemented with BODIPY-FL labeled AT-7519, terbium-labeled streptavidin and biotin-labeled anti-histidine antibody, and the mixture was stood for not less than 60 min at room temperature. This solution was added to an assay plate containing a test compound dispensed therein, and the mixture was left standing for 120 min at room temperature. The final concentration of CDK12/CycK complex, BODIPY-FL-labeled AT-7519, terbium-labeled streptavidin and biotin-labeled anti-histidine antibody was set to 2 nM, 66 nM, 0.2 nM, and 0.4 nM, respectively. The fluorescence intensity derived from terbium and BODIPY-FL was measured using Envision. The signal value of each well was determined using the TR-FRET ratio calculated by the following formula. TR-FRET ratio=(fluorescence value of BODIPY-FL)÷(fluorescence value of terbium)
The inhibitory rate (%) of the test compound against CDK12 was calculated by the following formula. Inhibitory rate (%)=(1−(TR-FRET ratio of test compound−blank)÷(control−blank))×100
The TR-FRET ratio of the CDK12 enzyme reaction mixture under compound non-addition conditions is indicated as control, and the TR-FRET ratio under 3 μM AT-7519 addition conditions is indicated as blank.
The inhibitory rate of the test compound against CDK12 at […] is shown below.

Sequence of CDK12/CycK complex (Q9NYV4 whole entry, species assumed): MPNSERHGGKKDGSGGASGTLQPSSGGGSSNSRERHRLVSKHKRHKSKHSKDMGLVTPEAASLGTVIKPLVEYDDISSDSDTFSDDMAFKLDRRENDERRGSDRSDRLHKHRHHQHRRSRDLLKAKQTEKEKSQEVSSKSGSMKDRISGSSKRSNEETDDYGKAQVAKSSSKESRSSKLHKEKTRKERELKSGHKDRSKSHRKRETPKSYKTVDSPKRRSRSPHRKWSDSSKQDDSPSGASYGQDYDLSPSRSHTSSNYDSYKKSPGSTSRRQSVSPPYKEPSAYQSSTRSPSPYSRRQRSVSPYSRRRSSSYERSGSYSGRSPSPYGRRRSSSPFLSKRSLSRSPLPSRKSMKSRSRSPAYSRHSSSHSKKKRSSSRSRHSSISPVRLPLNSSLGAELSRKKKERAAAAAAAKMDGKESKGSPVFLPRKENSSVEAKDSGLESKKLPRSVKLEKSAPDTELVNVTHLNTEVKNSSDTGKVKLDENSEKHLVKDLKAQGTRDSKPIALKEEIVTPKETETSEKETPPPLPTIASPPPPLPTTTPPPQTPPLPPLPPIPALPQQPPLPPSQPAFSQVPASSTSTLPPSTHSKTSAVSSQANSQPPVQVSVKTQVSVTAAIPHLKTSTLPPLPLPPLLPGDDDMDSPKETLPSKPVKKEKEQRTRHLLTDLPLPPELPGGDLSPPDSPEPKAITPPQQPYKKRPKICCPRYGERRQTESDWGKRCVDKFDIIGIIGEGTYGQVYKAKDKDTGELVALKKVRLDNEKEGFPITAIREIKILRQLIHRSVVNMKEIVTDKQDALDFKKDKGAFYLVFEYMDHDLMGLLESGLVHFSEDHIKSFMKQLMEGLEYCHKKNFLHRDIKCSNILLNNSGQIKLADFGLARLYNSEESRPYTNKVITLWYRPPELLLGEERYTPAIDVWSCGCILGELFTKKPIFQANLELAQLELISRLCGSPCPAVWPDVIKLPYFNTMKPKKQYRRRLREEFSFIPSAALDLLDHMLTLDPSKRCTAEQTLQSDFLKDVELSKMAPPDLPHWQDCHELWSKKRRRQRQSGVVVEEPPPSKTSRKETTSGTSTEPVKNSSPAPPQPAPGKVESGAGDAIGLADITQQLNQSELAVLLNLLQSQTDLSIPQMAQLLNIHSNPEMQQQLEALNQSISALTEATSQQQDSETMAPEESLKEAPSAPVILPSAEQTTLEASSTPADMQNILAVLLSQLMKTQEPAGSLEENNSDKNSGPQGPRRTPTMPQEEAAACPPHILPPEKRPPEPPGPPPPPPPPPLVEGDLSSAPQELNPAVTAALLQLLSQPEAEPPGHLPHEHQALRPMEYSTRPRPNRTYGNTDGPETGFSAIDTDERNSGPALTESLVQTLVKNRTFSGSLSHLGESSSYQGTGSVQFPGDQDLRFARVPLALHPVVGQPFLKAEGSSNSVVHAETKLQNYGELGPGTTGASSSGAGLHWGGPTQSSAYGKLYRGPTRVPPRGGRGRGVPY
Sequence of CDK12/CycK complex (O75909 whole entry partner, species assumed): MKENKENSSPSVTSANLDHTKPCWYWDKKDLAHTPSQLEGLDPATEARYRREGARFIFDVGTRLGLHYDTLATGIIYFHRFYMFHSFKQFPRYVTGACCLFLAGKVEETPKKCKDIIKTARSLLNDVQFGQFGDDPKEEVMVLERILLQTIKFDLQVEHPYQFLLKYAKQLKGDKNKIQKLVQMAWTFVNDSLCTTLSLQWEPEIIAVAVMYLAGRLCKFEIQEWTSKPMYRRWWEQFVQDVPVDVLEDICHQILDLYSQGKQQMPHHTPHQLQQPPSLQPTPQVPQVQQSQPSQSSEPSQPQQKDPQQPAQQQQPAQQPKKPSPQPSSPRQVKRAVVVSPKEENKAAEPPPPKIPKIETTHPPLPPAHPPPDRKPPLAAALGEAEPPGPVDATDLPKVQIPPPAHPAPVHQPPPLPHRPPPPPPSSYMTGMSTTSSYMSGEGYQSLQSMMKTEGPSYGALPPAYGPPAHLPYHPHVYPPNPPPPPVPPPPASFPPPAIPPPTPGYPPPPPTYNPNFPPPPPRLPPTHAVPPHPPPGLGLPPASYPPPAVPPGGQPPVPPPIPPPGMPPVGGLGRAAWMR

Consider `Cn1cc(-c2ccc(N(C(=O)NCc3ccccc3)[C@H]3CC[C@H](Nc4ncc(C#N)c(NC5COC5)n4)CC3)cc2)ccc1=O` [Example 483, 3-benzyl-1-(trans-4-((5-cyano-4-(oxetan-3-ylamino)pyrimidin-2-yl)amino)cyclohexyl)-1-(4-(1-methyl-6-oxo-1,6-dihydropyridin-3-yl)phenyl)urea], for which the inhibition at 1 µM is 103%.
In the case of `COc1ncc(-c2cnc(N(C(=O)NCc3ccccc3)[C@H]3CC[C@H](Nc4ncc(C(F)(F)F)c(OC5COC5)n4)CC3)nc2)cn1` [Example 606, 3-benzyl-1-(2′-methoxy-5,5′-bipyrimidin-2-yl)-1-(trans-4-((4-(oxetan-3-yloxy)-5-(trifluoromethyl)pyrimidin-2-yl)amino)cyclohexyl)urea] it was 96%; in that of `COc1ncc(-c2ccc(N(C(=O)COc3ccccc3)[C@H]3CC[C@H](Nc4ncc(C#N)c(NC5COC5)n4)CC3)nc2)cn1` [Example 587, N-(trans-4-((5-cyano-4-(oxetan-3-ylamino)pyrimidin-2-yl)amino)cyclohexyl)-N-(5-(2-methoxypyrimidin-5-yl)pyridin-2-yl)-2-phenoxyacetamide], 102%.
In the case of `COc1ncc(-c2ccc(N(C(=O)NCc3ccccc3)[C@H]3CC[C@H](Nc4ncc(C#N)c(N5CCCC(O)CC5)n4)CC3)nc2)cn1` (stereo partly drawn) [Example 595, 3-benzyl-1-(trans-4-((5-cyano-4-(4-hydroxyazepan-1-yl)pyrimidin-2-yl)amino)cyclohexyl)-1-(5-(2-methoxypyrimidin-5-yl)pyridin-2-yl)urea], the inhibition at 1 µM worked out at 104%.
In the case of `Cc1cc(-c2nc(N[C@H]3CC[C@H](N(C(=O)NCc4ccccc4)c4cnc(-c5cnn(C)c5)cn4)CC3)ncc2C#N)[nH]n1` [Example 552, 3-benzyl-1-(trans-4-((5-cyano-4-(3-methyl-1H-pyrazol-5-yl)pyrimidin-2-yl)amino)cyclohexyl)-1-(5-(1-methyl-1H-pyrazol-4-yl)pyrazin-2-yl) urea] it was 98%; in that of `COc1ncc(-c2ccc(N(C(=O)COc3ccccc3)[C@H]3CC[C@H](Nc4ncc(C(F)(F)F)c(OC5COC5)n4)CC3)nc2)cn1` [Example 627, N-(5-(2-methoxypyrimidin-5-yl)pyridin-2-yl)-N-(trans-4-((4-(oxetan-3-yloxy)-5-(trifluoromethyl)pyrimidin-2-yl)amino)cyclohexyl)-2-phenoxyacetamide], 98%.
With `Cn1cc(-c2ccc(N(C(=O)NCc3ccccc3)[C@H]3CC[C@H](Nc4ncc(C#N)c(-c5ccc(C#N)s5)n4)CC3)nn2)cn1` [Example 538, 3-benzyl-1-(trans-4-((5-cyano-4-(5-cyano-2-thienyl)pyrimidin-2-yl)amino)cyclohexyl)-1-(6-(1-methyl-1H-pyrazol-4-yl)pyridazin-3-yl)urea], the inhibition at 1 µM came to 86%.
Turning to `COc1ncc(-c2ccc(N(C(=O)NCc3ccccn3)[C@H]3CC[C@H](Nc4ncc(C(F)(F)F)c(N5CC(C)(O)C5)n4)CC3)nc2)cn1` [Example 630, 1-(trans-4-((4-(3-hydroxy-3-methylazetidin-1-yl)-5-(trifluoromethyl)pyrimidin-2-yl)amino)cyclohexyl)-1-(5-(2-methoxypyrimidin-5-yl)pyridin-2-yl)-3-(pyridin-2-ylmethyl)urea], the inhibition at 1 µM came to 104%.
In the case of `COc1ncc(-c2ccc(N(C(=O)COc3ccccc3)[C@H]3CC[C@H](Nc4ncc(C(F)(F)F)c(N5CC(C)(O)C5)n4)CC3)nc2)cn1` [Example 623, N-(trans-4-((4-(3-hydroxy-3-methylazetidin-1-yl)-5-(trifluoromethyl)pyrimidin-2-yl)amino)cyclohexyl)-N-(5-(2-methoxypyrimidin-5-yl)pyridin-2-yl)-2-phenoxyacetamide] it was 100%; in that of `Cn1cc(-c2ccc(N(C(=O)NCc3ccccc3)[C@H]3CC[C@H](Nc4ncc(C#N)c(NC5COC5)n4)CC3)nn2)cn1` [Example 532, 3-benzyl-1-(trans-4-((5-cyano-4-(oxetan-3-ylamino)pyrimidin-2-yl)amino)cyclohexyl)-1-(6-(1-methyl-1H-pyrazol-4-yl)pyridazin-3-yl)urea], 106%; in that of `COc1ncc(-c2ccc(N(C(=O)OCc3ccccn3)[C@H]3CC[C@H](Nc4ncc(C(F)(F)F)c(N5CC(C)(O)C5)n4)CC3)nc2)cn1` [Example 628, pyridin-2-ylmethyl (trans-4-((4-(3-hydroxy-3-methylazetidin-1-yl)-5-(trifluoromethyl)pyrimidin-2-yl)amino)cyclohexyl) (5-(2-methoxypyrimidin-5-yl)pyridin-2-yl)carbamate], 100%.
The value for `Cn1cc(-c2cnc(N(C(=O)NCc3ccccc3)[C@H]3CC[C@H](Nc4ncc(C#N)c(-c5ccc(C#N)s5)n4)CC3)cn2)cn1` [Example 495, 3-benzyl-1-(trans-4-((5-cyano-4-(5-cyano-2-thienyl)pyrimidin-2-yl)amino)cyclohexyl)-1-(5-(1-methyl-1H-pyrazol-4-yl)pyrazin-2-yl)urea] was 81%.
Take `COc1ncc(-c2ccc(N(C(=O)NCc3ccccc3)[C@H]3CC[C@H](Nc4ncc(C#N)c(N5CC(C)(O)C5)n4)CC3)nc2)cn1` [Example 626, 3-benzyl-1-(trans-4-((5-cyano-4-(3-hydroxy-3-methylazetidin-1-yl)pyrimidin-2-yl)amino)cyclohexyl)-1-(5-(2-methoxypyrimidin-5-yl)pyridin-2-yl)urea]: the inhibition at 1 µM was determined as 105%.
Take `COc1ncc(-c2ccc(N(C(=O)OCc3ccccn3)[C@H]3CC[C@H](Nc4ncc(C(F)(F)F)c(OC5COC5)n4)CC3)nc2)cn1` [Example 629, pyridin-2-ylmethyl (5-(2-methoxypyrimidin-5-yl)pyridin-2-yl) (trans-4-((4-(oxetan-3-yloxy)-5-(trifluoromethyl)pyrimidin-2-yl)amino)cyclohexyl)carbamate]: the inhibition at 1 µM came to 100%.
As for `COc1ncc(-c2cnc(N(C(=O)NCc3ccccc3)[C@H]3CC[C@H](Nc4ncc(C#N)c(N5CC(C)(O)C5)n4)CC3)cn2)cn1` [Example 620, 3-benzyl-1-(trans-4-((5-cyano-4-(3-hydroxy-3-methylazetidin-1-yl)pyrimidin-2-yl)amino)cyclohexyl)-1-(5-(2-methoxypyrimidin-5-yl)pyrazin-2-yl)urea], the inhibition at 1 µM came to 97%.
As to `COc1ncc(-c2ccc(N(C(=O)N[C@@H](C)c3ccccc3)[C@H]3CC[C@H](Nc4ncc(C(F)(F)F)c(N5CC(C)(O)C5)n4)CC3)nc2)cn1` [Example 633, 1-(trans-4-((4-(3-hydroxy-3-methylazetidin-1-yl)-5-(trifluoromethyl)pyrimidin-2-yl)amino)cyclohexyl)-1-(5-(2-methoxypyrimidin-5-yl)pyridin-2-yl)-3-((1S)-1-phenylethyl)urea], the inhibition at 1 µM amounted to 102%.
With `Cc1cc(-c2nc(N[C@H]3CC[C@H](N(C(=O)NCc4ccccc4)c4ccc(-c5cnn(C)c5)nn4)CC3)ncc2C#N)[nH]n1` [Example 542, 3-benzyl-1-(trans-4-((5-cyano-4-(3-methyl-1H-pyrazol-5-yl)pyrimidin-2-yl)amino)cyclohexyl)-1-(6-(1-methyl-1H-pyrazol-4-yl)pyridazin-3-yl)urea], the inhibition at 1 µM turned out to be 100%.
With `Cn1cc(-c2ccc(N(C(=O)NCc3ccccc3)[C@H]3CC[C@H](Nc4ncc(C#N)c(N5CC(C)(O)C5)n4)CC3)nc2)cn1` [Example 482, 3-benzyl-1-(trans-4-((5-cyano-4-(3-hydroxy-3-methylazetidin-1-yl)pyrimidin-2-yl)amino)cyclohexyl)-1-(5-(1-methyl-1H-pyrazol-4-yl)pyridin-2-yl) urea], the inhibition at 1 µM is 104%.
With `COc1ncc(-c2ccc(N(C(=O)NCc3ccccc3)[C@H]3CC[C@H](Nc4ncc(C(F)(F)F)c(N5CC(C)(O)C5)n4)CC3)nc2)cn1` [Example 625, 3-benzyl-1-(trans-4-((4-(3-hydroxy-3-methylazetidin-1-yl)-5-(trifluoromethyl)pyrimidin-2-yl)amino)cyclohexyl)-1-(5-(2-methoxypyrimidin-5-yl)pyridin-2-yl)urea], the inhibition at 1 µM was found to be 103%.
Turning to `Cn1cc(-c2ccc(N(C(=O)NCc3ccccc3)[C@H]3CC[C@H](Nc4ncc(C#N)c(NCCCO)n4)CC3)cc2)cn1` [Example 199, 3-benzyl-1-(trans-4-((5-cyano-4-((3-hydroxypropyl)amino)pyrimidin-2-yl)amino)cyclohexyl)-1-(4-(1-methyl-1H-pyrazol-4-yl)phenyl)urea], the inhibition at 1 µM stood at 101%.
The value for `COc1ncc(-c2cnc(N(C(=O)OCc3ccccc3)[C@H]3CC[C@H](Nc4ncc(C#N)c(N5CC(C)(O)C5)n4)CC3)nc2)cn1` [Example 619, benzyl (trans-4-((5-cyano-4-(3-hydroxy-3-methylazetidin-1-yl)pyrimidin-2-yl)amino)cyclohexyl) (2′-methoxy-5,5′-bipyrimidin-2-yl)carbamate] was 98%; that for `COc1ncc(-c2ccc(N(C(=O)NCc3ccccc3)[C@H]3CC[C@H](Nc4ncc(C(F)(F)F)c(N5CCCC(O)CC5)n4)CC3)nc2)cn1` (stereo partly drawn) [Example 592, 3-benzyl-1-(trans-4-((4-(4-hydroxyazepan-1-yl)-5-(trifluoromethyl)pyrimidin-2-yl)amino)cyclohexyl)-1-(5-(2-methoxypyrimidin-5-yl)pyridin-2-yl)urea] was 101%.

A word on the inhibition: it is the change of the read-out against control, counted positive when it falls.
